From patent US20240139149A1, “THERAPEUTIC USES OF UROLITHIN DERIVATIVES” (Vandria SA, priority 2022, published 2024)

Tested on: APTK organoids
Test: APTK tumor organoids treated with UA (lysosomes, mitochondria, MHC-I by flow cytometry)
Type: cell-based, mouse
Details: increasing concentrations of UA
Protocol: APTK colorectal organoids which harbor mutations for Apc, Trp53 and Tgfbr2 as well as expression of oncogenic KraSG12D were established and maintained as previously described (Nicolas et al., 2022; Varga et al., 2020). APTK organoids were seeded in 6 wells suspension plates: 6 droplets of 50 l Matrigel (Corning) per well were used. To generate OVA-APTK, colon organoids were isolated from unchallenged OVA mice (The Jackson Laboratory) as previously described (Nicolas et al., 2022). Liposomes CRISPR/Cas9 technology-based transfection was used for targeted knockout of the following mutated colorectal cancer-related genes: Apc (gRNA: […])(SEQ ID NO:1), Trp53 gRNA: […]) (SEQ ID NO:2), and Tgfbr2 (gRNA: […]) (SEQ ID NO:3) as previously described (Schwank and Clevers, 2016). Cas9 plasmid (Addgene; #41815) was used along gRNA plasmids generated from addgene #41819 plasmid by cloning the gRNA of interest instead of GFP targeting gRNA. Firstly, Apc knockout (A) organoids were functionally selected by the withdrawal of R-spondin from the culture medium. Secondly, Apc Trp53 (AT) knockout organoids were selected for Trp53 loss with 5 μM of MDM2 inhibitor (Nutlin-3) (Biomole, cat no. 10004372). Thirdly, Apc Trp53 Tgfbr2 (APT) knockout organoids were selected with […] recombinant TGFβ (R&D Systems; 7666-MB). Finally, KrasG12D gain of function mutation was obtained by overexpressing the active murine version of Kras gene (cloned in house based on Addgene plasmid #111164, Map-S5) in APT organoids. Apc, Trp53, Tgfbr2 and KrasG12D (APTK) OVA organoids were selected by 2 μg/mL puromycin (Merck; 58-58-2) and withdrawal of EGF and noggin from the culture medium. In order to study the effect of UA on lysosome formation, mitochondria reduction as well as antigen presentation, organoids were treated with 25-50 μM UA for 24-48 h. Organoids were subsequently stained with a MHC-I antibody (AF6-88.5; 116516; BioLegend), Mitotracker Deep Red (250 nm; ThermoFisher) and Lysotracker Red DND-99 (75 nM; ThermoFisher).

Structure (SMILES): O=c1oc2cc(O)ccc2c2ccc(O)cc12 [UA, Urolithin A]
- MitoTracker staining: loss of MitoTracker staining
- formation of lysosomes (lysotracker): dose-dependent formation of lysosomes
- MHC-I expression (48 hours): marked upregulation
